One block for each molecule: values may come before it.
Experiments:
[1] = target: T1, LRP cl-IV binding to BSA-AGE (Bos taurus, UniProt P02769); assay: ELISA, interference with LRP cl-IV binding to BSA-AGE; design: species or system human; conditions: concentration series, 50 times diluted LRP cl-IV medium
T1 construct: made in house; host or cells: HEK293E/S (LRP cl-IV, culture supernatant)
Method: To test whether amyloid-like crossbeta structure binding compounds tPA, Congo red, Thioflavin T and Thioflavin S interfere with LRP cl-IV binding to BSA-AGE, concentration series of the potential inhibitory amyloid binding moieties were tested in the presence of 50 times diluted medium containing LRP cl-IV. The following inhibitors were used: tPA, Congo red, Thioflavin T (ThT) and Thioflavin S (ThS). As a control to tPA, K2P tPA, which lacks the amyloid-like misfolded protein binding finger domain, was included in the analyses. The influence of tPA and K2P tPA was tested in the presence of 10 mM ε-amino caproic acid to avoid binding of the kringle2 domain of tPA and K2P tPA to lysine- and arginine residues. Binding buffer and K2P tPA serve as negative controls in these inhibition studies. The concentration series was measured in triplicate, the values averaged and standard deviations calculated. Background signals obtained with buffer-coated wells were subtracted. Signals obtained with binding of LRP cluster IV to BSA-AGE was set arbitrarily to a reference binding of 100% and signals obtained with the concentration series of misfolded protein binding moieties and K2P tPA were calculated based on this set reference.

platelets = assay: Aggregometric assay with washed platelets; type: cell-based, human; conditions: 200 μM
Method: The presence of protein(s) and/or peptide(s) with amyloid-like misfolded protein conformation on activated blood platelets was tested with washed platelets in an aggregometric assay. Freshly drawn human aspirin free blood was mixed gently with citrate buffer to avoid coagulation. Blood was spinned for 15 minutes at 150*g at 20° C. and supernatant was collected; platelet rich plasma (PRP). […] After spinning down the platelets upon centrifugation for 15 minutes at 330*g at 20° C., the pellet was resuspended in HEPES-Tyrode buffer pH 6.5. Prostacyclin was added to a final concentration of 10 ng/ml, and the solution was centrifuged for 15 minutes at 330*g at 20° C., with a soft brake. The pellet was resuspended in HEPES-Tyrode buffer pH 7.2 in a way that the final platelet number was adjusted to 200,000/μl. Platelets were kept at 37° C. for at least 30 minutes, before use in the assays, to ensure that they were in the resting state.
For the aggregometric assays, 400 μl platelet solution was added to a glass tube with 100 μl containing the agonist of interest, fibrinogen and CaCl2. Final concentrations of fibrinogen and CaCl2 were 0.5 mg/ml and 3 mM, respectively. A stirring magnet was added and the apparatus (Whole-blood aggregometer, Chrono-log, Havertown, Pa., USA) was blanked. Aggregation was followed in time by measuring the absorbance of the solution, that will decrease in time upon platelet aggregation. As a positive control, 0.5 U/ml thrombin was used, or TRAP. Aggregation was followed for 10 minutes. Influence of 200 μM Thioflavin T, 200 μM Congo red or 1 μM tPA on platelet aggregation was analyzed.

[2] = tested on: tPA binding to amyloid-like aggregates; conditions: ELISAs; patent application P57716EP00 and unpublished data; cited from earlier work
[3] = target: T2, tPA binding to immobilized Hb-AGE (Homo sapiens, UniProt P68871+P69905); assay: ELISA, influence of ellagic acid on tPA binding to immobilized Hb-AGE
T2 construct: purchased tPA: Boehringer Ingelheim (Actilyse); Hb: Sigma-Aldrich Hb: H7379
Method: Determination of the influence of ellagic acid on the binding of a suboptimal concentration of tPA to a refined concentration of immobilized Hb-AGE. Parameter: a fixed concentration of tPA, in PBS with 0.1% (v/v) Tween20, 10 mM εACA and 10% DMSO, mixed with ellagic acid. As a positive control, tPA in binding buffer with 10% DMSO was used. This binding was set to 100% and values obtained after co-incubation of Hb-AGE with tPA with ellagic acid, were scaled accordingly. Binding experiments were performed in single wells, in a duplicate experiment. Binding data obtained with this duplicate experiment was averaged. Enhancement of tPA binding was arbitrarily set to values>100%. Inhibition of tPA binding to misfolded Hb-AGE was arbitrarily set to values smaller than 50%. With the chosen experimental lay-out, it can not be distinguished whether ellagic acid influences the interaction between tPA and Hb-AGE by binding to Hb-AGE only or by binding to tPA only or by binding to both tPA and Hb-AGE.
In a next series of experiments, the ability of ellagic acid that interacts with tPA and/or Hb-AGE, to bind to immobilized fb-AGE, heat-denatured misfolded ovalbumin and amyloid-β was analyzed. In a first experiment, the coated misfolded Hb-AGE was first incubated with ellagic acid. After washing, tPA binding was assessed. Similar binding assays are performed with misfolded OVA and Aβ. […]

tPA binding to DOVA = target: T3, tPA binding to DOVA (Gallus gallus, UniProt P01012); assay: ELISA, influence of ellagic acid on tPA binding to immobilized misfolded ovalbumin
T3 construct: purchased tPA: Boehringer Ingelheim (Actilyse); OVA: Sigma OVA: A-7641
T3 sequence (P01012 2-386 limits assumed): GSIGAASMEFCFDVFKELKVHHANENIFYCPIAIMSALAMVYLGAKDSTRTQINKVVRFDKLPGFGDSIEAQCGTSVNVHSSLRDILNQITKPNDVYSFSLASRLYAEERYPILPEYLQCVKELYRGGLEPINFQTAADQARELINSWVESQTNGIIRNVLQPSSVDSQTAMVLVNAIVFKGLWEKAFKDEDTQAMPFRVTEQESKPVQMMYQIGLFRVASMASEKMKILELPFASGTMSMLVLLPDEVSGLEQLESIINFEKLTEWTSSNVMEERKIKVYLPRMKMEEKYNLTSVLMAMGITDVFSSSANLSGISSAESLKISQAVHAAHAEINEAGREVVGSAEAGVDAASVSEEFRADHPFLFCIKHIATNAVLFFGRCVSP
Method: In a next series of experiments, the ability of ellagic acid that interacts with tPA and/or Hb-AGE, to bind to immobilized fb-AGE, heat-denatured misfolded ovalbumin and amyloid-β was analyzed. In a first experiment, the coated misfolded Hb-AGE was first incubated with ellagic acid. After washing, tPA binding was assessed. Similar binding assays are performed with misfolded OVA and Aβ. Finally, concentration series of ellagic acid are used in the binding studies.
Ellagic acid was co-incubated with 0.5 nM tPA. Controls: 1 mM ThT with 0.5 nM tPA, 0.5 mM CR with 0.5 nM tPA, 0.5 nM tPA without compound and buffer without tPA. Next, coated ELISA plates were first -pre-incubated with ellagic acid (for 30 minutes) followed by tPA incubation (for 30 minutes). For similar ELISA's with DOVA and Aβ(1-40) E22Q, 1 μg/ml DOVA or Aβ was coated and overlayed with 80 nM tPA. Subsequently, DOVA or Aβ coated wells and buffer-coated control wells were first incubated with 500 μg/ml ellagic acid, followed by an overlay with tPA.

Hb-AGE = target: T4, Hb-AGE (Homo sapiens, UniProt P68871+P69905); assay: Binding of Hb-AGE from solution to immobilized ellagic acid; conditions: Hb-AGE 10 μg/ml, background subtracted
T4 construct: purchased Sigma-Aldrich H7379
Method: (§1) To test the ability of ellagic acid to bind to misfolded proteins, ellagic acid was immobilized at 100 μg/ml in the wells of a 96-wells Greiner Microlon high binding plate and a Nunc Maxisorp plate. Ellagic acid was coated in 100 mM NaHCO3 pH 9.6, 50 μp/well, 1 h at room temperature with agitation. As a control for subtraction of background signals of binding of misfolded proteins to wells without ellagic acid, wells were coated with buffer only. After blocking of the plates, wells were overlayed with solutions of 0.1/1/10 μg/ml Hb-AGE or 10/100 μg/ml Aβ, in binding buffer (PBS/0.1% Tween20). After washing, binding of Hb-AGE was assessed by overlaying wells with 1 μg/ml hybridoma antibody 4B5, which binds to glycations (^1), followed by RAMPO. Binding of Aβ was visualized using 500× diluted anti-Aβ antibodies (mouse antibody beta-amyloid Clone 6F/3D #M0872, lot 00003503, DAKOCytomation; β-amyloid (H-43) SC-9129, 200 μg/ml rabbit polyclonal IgG, Santa Cruz Biotechnology) and RAMPO/SWARPO in a 1:1 ratio. Finally, wells were overlayed with OPD/H2O2 solution, and H2SO4, before absorbance readings at 490 nm.

Aβ = target: T5, Aβ (Homo sapiens, UniProt P05067, E693Q); assay: Binding of Aβ from solution to immobilized ellagic acid; conditions: Nunc Maxisorp, Aβ 100 μg/ml, background subtracted
T5 construct: Human amyloid-β (Ap) (1-40) Dutch type
Method: as §1

fibronectin F4,5 = target: T6, fibronectin F4,5 (Homo sapiens, UniProt P02751); assay: Affinity determination ELISA, fibronectin F4,5 on coated (mis)folded proteins; type: binding; conditions: coated protein as labelled
T6 construct: human fibronectin finger 4,5 (Fn F4,5) fragment; made in house; host or cells: HEK293E
From the text: (§2) Synthetic genes of human BiP, human fibronectin finger 4,5 (Fn F4,5) fragment, and human tissue-type plasminogen activator finger EGF (tPA F-EGF) fragment were ordered from Geneart (Regensburg, Germany). These DNA constructs were digested using BamHI and NotI, and ligated into vector pABC674 (ABC-expression facility, Utrecht University, The Netherlands), which contains a carboxy-terminal FLAG-tag—His-tag. HEK293E cells were transiently transfected with these constructs using the polyethylene-imine method, and grown for 5-6 days.
(§3) Denatured proteins and their native controls BSA (Sigma, A7906), glycated BSA, Hb (Sigma, H7605), glycated Hb, ovalbumin (Sigma, A6741), heat-denatured misfolded ovalbumin, human γ-globulins (Sigma, G4386), heat-denatured misfolded γ-globulins, alkyl-γ-globulins, lysozyme (ICN Biochemicals, 100831) and alkyl-lysozyme were coated on ELISA plates (Greiner Microlon high-binding, 655092) in 50 mM NaHCO3-buffer pH 9.6. The plates were blocked using Blocking reagent (Roche 1112589). […] Bound protein is detected by the FLAG-tag using 1:3000 anti-FLAG-HRP (Sigma A-8592) in PBS-T, or by 1:1000 Ni-NTA-HRP (Qiagen 34530) in PBS-T. The HRP reaction Is performed using the TMB substrate (Biosource 4501103 or Tebu Bio 101TMB100-500), stopped using 10% H2SO4 and absorbance was measured at 450 nm.

BiP = target: T7, BiP (Homo sapiens, UniProt P11021); assay: Affinity determination ELISA, BiP on coated (mis)folded proteins; type: binding; conditions: coated protein as labelled
T7 construct: made in house; host or cells: HEK293E
From the text: as §2, §3

T2 sequence (P69905 2-142 limits assumed): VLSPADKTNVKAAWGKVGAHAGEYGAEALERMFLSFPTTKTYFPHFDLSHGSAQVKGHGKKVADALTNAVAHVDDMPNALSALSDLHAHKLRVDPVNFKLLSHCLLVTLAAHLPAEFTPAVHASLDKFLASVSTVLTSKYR
T2 sequence (P68871 2-147 limits assumed): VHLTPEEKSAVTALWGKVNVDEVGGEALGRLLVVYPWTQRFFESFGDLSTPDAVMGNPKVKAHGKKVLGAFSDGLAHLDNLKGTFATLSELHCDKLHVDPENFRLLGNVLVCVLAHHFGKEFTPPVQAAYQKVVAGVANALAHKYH
T4 sequence (P69905 2-142 limits assumed): as the sequence (P69905 2-142 limits assumed) above
T4 sequence (P68871 2-147 limits assumed): as the sequence (P68871 2-147 limits assumed) above
T1 sequence (P02769 25-607): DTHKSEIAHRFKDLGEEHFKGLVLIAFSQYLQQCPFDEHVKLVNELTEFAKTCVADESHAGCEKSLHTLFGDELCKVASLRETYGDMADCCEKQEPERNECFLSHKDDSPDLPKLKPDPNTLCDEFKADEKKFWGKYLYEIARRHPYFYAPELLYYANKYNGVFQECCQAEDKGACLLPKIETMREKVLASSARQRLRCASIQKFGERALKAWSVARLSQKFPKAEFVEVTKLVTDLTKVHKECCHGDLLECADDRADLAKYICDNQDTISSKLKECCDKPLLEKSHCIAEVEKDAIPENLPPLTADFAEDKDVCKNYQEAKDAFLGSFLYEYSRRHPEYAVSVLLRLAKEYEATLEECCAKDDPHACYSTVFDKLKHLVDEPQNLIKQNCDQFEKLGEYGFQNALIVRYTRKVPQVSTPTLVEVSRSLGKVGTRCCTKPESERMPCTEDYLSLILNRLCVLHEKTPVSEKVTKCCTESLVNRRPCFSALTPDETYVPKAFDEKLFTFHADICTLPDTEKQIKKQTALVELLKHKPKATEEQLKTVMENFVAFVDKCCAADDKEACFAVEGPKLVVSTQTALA
T7 sequence (P11021 19-654): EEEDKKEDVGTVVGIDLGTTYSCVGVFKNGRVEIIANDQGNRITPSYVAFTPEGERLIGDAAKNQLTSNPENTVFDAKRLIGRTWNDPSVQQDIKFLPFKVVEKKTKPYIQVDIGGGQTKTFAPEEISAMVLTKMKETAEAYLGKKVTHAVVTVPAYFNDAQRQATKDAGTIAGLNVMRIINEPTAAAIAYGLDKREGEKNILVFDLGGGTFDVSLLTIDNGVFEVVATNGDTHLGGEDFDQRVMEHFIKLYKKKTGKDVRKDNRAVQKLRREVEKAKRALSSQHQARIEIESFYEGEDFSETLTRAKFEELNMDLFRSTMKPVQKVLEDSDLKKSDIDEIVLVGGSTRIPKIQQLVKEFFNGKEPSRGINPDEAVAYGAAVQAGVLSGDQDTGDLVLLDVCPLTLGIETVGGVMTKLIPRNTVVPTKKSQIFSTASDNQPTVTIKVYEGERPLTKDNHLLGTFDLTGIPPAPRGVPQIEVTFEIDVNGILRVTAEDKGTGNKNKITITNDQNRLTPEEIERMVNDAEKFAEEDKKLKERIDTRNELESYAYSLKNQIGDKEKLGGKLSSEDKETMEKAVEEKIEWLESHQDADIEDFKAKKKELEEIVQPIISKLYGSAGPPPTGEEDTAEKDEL
T6 sequence (P02751 182-276 limits assumed): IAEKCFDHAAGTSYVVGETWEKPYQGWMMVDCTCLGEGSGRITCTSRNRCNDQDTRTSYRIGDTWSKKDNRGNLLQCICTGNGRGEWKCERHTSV

- influence on binding of LRP cl-IV to BSA-AGE [1]: do not interfere
Molecule: Cc1ccc2c(c1)sc(-c1ccc(N(C)C)cc1)[n+]2C.[Cl-] [ThT, Thioflavin T]
- inhibition of platelet aggregation (platelets): up to 45%
- competition for tPA binding to amyloid-like aggregates [2]: did not inhibit tPA binding at all

Molecule: O=c1oc2c(O)c(O)cc3c(=O)oc4c(O)c(O)cc1c4c23 [ellagic acid]
- influence on tPA binding to Hb-AGE ([3]; ELISA): stimulator of tPA binding
- direct interaction with immobilized misfolded protein ([3]; pre-incubation of coated Hb-AGE or misfolded OVA, then tPA): binds directly to misfolded protein
- influence on tPA binding to DOVA (tPA binding to DOVA): stimulator of tPA binding
- Signal (Hb-AGE; Greiner Microlon): 0.13 a.u.
- Signal (Hb-AGE; Nunc Maxisorp): 0.15 a.u.
- Signal (Aβ): 0.054 a.u.

- affinity for fibronectin F4,5 (fibronectin F4,5): high affinity
Molecule: Freshly dissolved lysozyme: lysozyme (ICN Biochemicals)

- binding of BiP (BiP): not
Molecule: heat-denatured BSA: heat-denatured bovine serum albumin

— US20080220446A1, “Method for Detecting and/or Removing Protein and/or Peptide Comprising a Cross-Beta Structure From an Aqueous Solution Comprising a Protein” (priority 2005, published 2008)
